ChEMBL document CHEMBL1201862, “PubChem BioAssay data set” (2004)
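Results reflect a 48-hour exposure of cells in 96-well plates to compound at five concentrations. At the GI50, growth is halved.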 Activity calls are given as the source filed them. Rule as the data show it: active = GI50 up to about 1.1 µM and inactive = higher.

Assays:
Experiment in all cases: NCI tumour cell line growth inhibition, 48 h
BT-549 = system: BT-549
Hs-578T = system: Hs-578T
MDA-N = system: MDA-N

SMILES | GI50 (BT-549) | GI50 (Hs-578T) | GI50 (MDA-N)
O=C(/C=c1\oc(=O)/c(=C/C(=O)c2ccc(Cl)cc2)oc1=O)c1ccc(Cl)cc1 | 10.4 µM (inactive) | 34.2 µM (inactive) | > 100 µM (inactive)
C=C1C(C(=O)OC)[C@H]1C(=O)OC (stereo partly specified) | > 100 µM (inactive) | > 100 µM (inactive) | > 100 µM (inactive)
CS(C)(=O)=N/C=C\C(=O)C(Cl)(Cl)Cl | > 100 µM (inactive) | > 100 µM (inactive) | 65.2 µM (inactive)
O=C1C=C(Cl)C(=O)C(c2ccc(Cl)cc2)=C1 | 23.8 µM (inactive) | 26.5 µM (inactive) | 13.3 µM (inactive)
NC(=S)N/N=C/c1c[nH]c2ccccc12 | > 100 µM (inactive) | > 100 µM (inactive) | > 100 µM (inactive)
CC(C)(CN1CCCCC1)C(/C=C/c1ccc(Cl)c(Cl)c1)=N\NC(=O)N/N=C(/C=C/c1ccc(Cl)c(Cl)c1)C(C)(C)CN1CCCCC1 | > 10 µM (inactive) | 1.81 µM (inactive) | 1.42 µM (inactive)
CN(CCNC(=O)c1nn(-c2ccc(Cl)cc2Cl)c2c1Cc1ccccc1-2)CCNC(=O)c1nn(-c2ccc(Cl)cc2Cl)c2c1Cc1ccccc1-2 | 7.38 µM (inactive) | 1.53 µM (inactive) | 2.25 µM (inactive)
c1ccc2c3c(ccc2c1)CSCc1ccc2ccccc2c1-3 | > 100 µM (inactive) | > 100 µM (inactive) | > 100 µM (inactive)
CC(=O)OCc1cc(CCC(=O)NCCNc2c3ccccc3nc3ccccc23)cc(COC(C)=O)c1O[Si](C)(C)C(C)(C)C | 13.7 µM (inactive) | 3.3 µM (inactive) | 5.85 µM (inactive)
CC1=Nc2nc3ccccc3n2C(C)(C)C1 | > 100 µM (inactive) | > 100 µM (inactive) | > 100 µM (inactive)
CC(C)(C)C1=CC(C)(n2[nH]c(=O)n(-c3ccccc3)c2=O)C=C(C(C)(C)C)C1=O | > 100 µM (inactive) | > 100 µM (inactive) | > 100 µM (inactive)
CCOC(=O)c1ncn(CCc2ccc(Cl)cc2)c1C | > 100 µM (inactive) | > 100 µM (inactive) | 80.5 µM (inactive)
CCOC(=O)/C=C(/C(=O)OCC)n1ccc(=O)[nH]c1=O | 12.2 µM (inactive) | 17.9 µM (inactive) | 10.8 µM (inactive)
COc1cc(Nc2cnc3cc(F)c(F)cc3n2)cc(OC)c1 | 33.9 µM (inactive) | 37.7 µM (inactive) | > 100 µM (inactive)
NC(=O)c1cc(-c2ccc(-n3ccnc3)cc2)nnc1O | > 100 µM (inactive) | > 100 µM (inactive) | > 100 µM (inactive)
COc1ccc(C2CC(c3ccc4ccccc4c3O)=NN2)cc1OC (stereo unspecified) | 23.5 µM (inactive) | 76.7 µM (inactive) | 21 µM (inactive)
O=C(NC(=S)Nc1ccc2c(c1)Sc1ccccc1O2)c1ccc([N+](=O)[O-])cc1 | > 100 µM (inactive) | > 100 µM (inactive) | > 100 µM (inactive)
CC(=O)OCC(C)C1=C(O)C(=O)C2(C)C/C=C(/C)CC/C=C(\C)CCC(O)C(C)CCC12 (stereo unspecified) |  | 19.6 µM (inactive) | 17 µM (inactive)
CCCC1=NC(C(F)(F)F)(C(F)(F)F)N=C(N2CCOCC2)O1 | > 100 µM (inactive) | > 100 µM (inactive) | 
CSC1=C(C(=O)N(COCC[Si](C)(C)C)c2ccccc2Br)CCC(C(C)(C)C)C1 (stereo unspecified) | 28.1 µM (inactive) |  | 
O=C1C2=Cc3ccccc3OC2(O)Oc2ccccc21 (stereo unspecified) |  |  | > 100 µM (inactive)
C=C(CN(C)C)C1(c2ccccc2)CC2(CCCC2)C(=O)O1 (stereo unspecified) |  | > 100 µM (inactive) | 44.8 µM (inactive)
CCOC(=O)/C1=C(\C)N(c2ccc(C)cc2)C(=O)c2ccccc2C(=O)c2c(OC(C)=O)ccc(OC(C)=O)c21 | 25.3 µM (inactive) | 16.6 µM (inactive) | 
O=C(CSCC(=O)N/N=C\c1cccc([N+](=O)[O-])c1)N/N=C\c1cccc([N+](=O)[O-])c1 |  | 45.4 µM (inactive) | 
CC(=O)OC1CC2c3cccc4c3C(CC2N(C)C1=O)CN4C(=O)c1ccccc1 (stereo unspecified) | 6.9 µM (inactive) |  | 21.7 µM (inactive)
CC(C)=CCc1ccc2[nH]c3c(c2c1)C(=O)C(=O)C(C)=C3C(O)C(C)O (stereo unspecified) |  | 15.1 µM (inactive) | 3.06 µM (inactive)
